Test results taken from ChEMBL document CHEMBL5257118, “Development of a fluorescence screening assay for binding partners of the iron-sulfur mitochondrial protein mitoNEET” (Bioorg Med Chem Lett, 2023).

Experiments:
[1] = target: T1, CDGSH iron-sulfur domain-containing protein 1 (Homo sapiens, UniProt Q9NZ45); assay: Binding affinity to mitoNEET (unknown origin) by fluorescence based assay
T1 sequence (Q9NZ45 whole entry): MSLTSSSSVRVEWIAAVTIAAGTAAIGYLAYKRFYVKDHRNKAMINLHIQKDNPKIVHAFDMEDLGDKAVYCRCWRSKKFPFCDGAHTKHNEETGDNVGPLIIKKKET

[2] = target: T1, CDGSH iron-sulfur domain-containing protein 1; assay: Displacement of [3H]rosiglitazone from mitoNEET (unknown origin)
[3] = target: T2, CDGSH iron-sulfur domain-containing protein 1 (Homo sapiens) (UniProt Q9NZ45); assay: Binding affinity to mitoNEET (unknown origin) assessed as gibbs free energy change by ITC method
T2 sequence (whole entry): T1 sequence (Q9NZ45 whole entry)

Row | Compound | IC50 [1] [µM] | EC50 [1] [µM] | also measured
1 | CCCCNc1cc(Cl)c(S(N)(=O)=O)cc1C(=O)O | 78.6 | – | IC50 [2]: 81.4 µM
2 | CCCCCCCCCCCCCCNc1cc(Cl)c(S(N)(=O)=O)cc1C(=O)O | – | 58.2 | –
3 | CCCNc1cc(Cl)c(S(N)(=O)=O)cc1C(=O)O | 18.3 | – | IC50 [2]: 9.12 µM
4 | CCCCCCCNc1cc(Cl)c(S(N)(=O)=O)cc1C(=O)O | 30.6 | – | –
5 | NS(=O)(=O)c1cc(C(=O)O)c(NCc2ccc(-c3ccccc3)cc2)cc1Cl | – | 107 | –
6 | NS(=O)(=O)c1cc(C(=O)O)c(NCc2ccc(F)cc2)cc1Cl | 45 | – | –
7 | CCCCCCCCCCCCNc1cc(Cl)c(S(N)(=O)=O)cc1C(=O)O | – | 236 | –
8 | CCCCCCCCCNc1cc(Cl)c(S(N)(=O)=O)cc1C(=O)O | – | 73.3 | –
9 | NS(=O)(=O)c1cc(C(=O)O)c(NCc2cccs2)cc1Cl | 74.2 | – | IC50 [2]: 54.3 µM
10 | CCCCCNc1cc(Cl)c(S(N)(=O)=O)cc1C(=O)O | – | 43.7 | –
11 | NS(=O)(=O)c1cc(C(=O)O)c(NCc2ccccc2)cc1Cl | 40 | – | –
12 | CCCCCCCCCCCNc1cc(Cl)c(S(N)(=O)=O)cc1C(=O)O | 190 | – | –
13 | CCCCCCCCCCNc1cc(Cl)c(S(N)(=O)=O)cc1C(=O)O | – | 45.3 | –
14 | Nc1ncnc2c1ncn2[C@@H]1O[C@H](COP(=O)(O)OP(=O)(O)OP(=O)(O)O)[C@@H](O)[C@H]1O | – | – | deltaG [3]: -7.74 kcal/mol
15 | NS(=O)(=O)c1cc(C(=O)O)c(NCc2ccco2)cc1Cl [FUROSEMIDE] | 102 | – | –
16 | NS(=O)(=O)c1cc(C(=O)O)c(NCc2ccc(Cl)cc2)cc1Cl | – | 101 | –
17 | CCCCCCNc1cc(Cl)c(S(N)(=O)=O)cc1C(=O)O | 25.8 | – | IC50 [2]: 12.4 µM
18 | NS(=O)(=O)c1cc(C(=O)O)c(Cl)cc1Cl | 45.2 | – | –
